Assay results reported in ChEMBL document CHEMBL1201862, “PubChem BioAssay data set” (2004).
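Assay format: 96-well plates, 48-hour exposure. GI50 is the concentration that inhibits growth by half.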 Activity calls are given as the source filed them. No stated cut-off is given here; in the data, active = GI50 up to about 1.1 µM and inactive = higher.

Columns and labels:
Experiment in all cases: growth of human tumour cells (NCI), 48 h
HL-60 = tested on: HL-60
CCRF-CEM = tested on: CCRF-CEM
OVCAR-5 = tested on: OVCAR-5
ACHN = tested on: ACHN
RXF 393 = tested on: RXF 393
RXF 631 = tested on: RXF 631
NCI-H23 = tested on: NCI-H23
M19-MEL = tested on: M19-MEL
SW-620 = tested on: SW-620
HOP-92 = tested on: HOP-92
SK-MEL-5 = tested on: SK-MEL-5
A498 = tested on: A498
SNB-78 = tested on: SNB-78
SK-MEL-28 = tested on: SK-MEL-28
XF498 = tested on: XF498
Malme-3M = tested on: Malme-3M
UACC-257 = tested on: UACC-257
DMS-114 = tested on: DMS-114
M14 = tested on: M14
IGROV-1 = tested on: IGROV-1
OVCAR-8 = tested on: OVCAR-8
DMS-273 = tested on: DMS-273
A549 = tested on: A549
SK-OV-3 = tested on: SK-OV-3
NCI-H226 = tested on: NCI-H226
OVCAR-4 = tested on: OVCAR-4
SN12C = tested on: SN12C
EKVX = tested on: EKVX
HCC 2998 = tested on: HCC 2998
SK-MEL-2 = tested on: SK-MEL-2
KM-20L2 = tested on: KM-20L2
COLO 205 = tested on: COLO 205
MOLT-4 = tested on: MOLT-4
UACC-62 = tested on: UACC-62
HCT-116 = tested on: HCT-116
UO-31 = tested on: UO-31
SF-295 = tested on: SF-295
LXFL 529 = tested on: LXFL 529
RPMI-8226 = tested on: RPMI-8226
NCI-H460 = tested on: NCI-H460
CAKI-1 = tested on: CAKI-1
SF-268 = tested on: SF-268
NCI-H522 = tested on: NCI-H522
SNB-19 = tested on: SNB-19
HT-29 = tested on: HT-29
LOX IMVI = tested on: LOX IMVI
HCT-15 = tested on: HCT-15
SF-539 = tested on: SF-539
HOP-62 = tested on: HOP-62
DLD-1 = tested on: DLD-1
K562 = tested on: K562
OVCAR-3 = tested on: OVCAR-3
SNB-75 = tested on: SNB-75
786-0 = tested on: 786-0
TK-10 = tested on: TK-10
KM12 = tested on: KM12
SR = tested on: SR
U-251 = tested on: U-251
HOP-18 = tested on: HOP-18

O=C(c1ccccc1)C(c1ccccc1)C1(O)C(=O)Nc2ccccc21 (stereo unspecified) was tested, and the GI50 (HL-60) was > 100 µM (inactive), the GI50 (CCRF-CEM) was > 100 µM (inactive) and the GI50 (OVCAR-5) was > 100 µM (inactive). The GI50 (ACHN) was > 100 µM (inactive), the GI50 (RXF 393) was > 100 µM (inactive) and the GI50 (RXF 631) was > 100 µM (inactive). For the same molecule, the GI50 (NCI-H23) was > 100 µM (inactive), the GI50 (M19-MEL) was > 100 µM (inactive) and the GI50 (SW-620) was > 100 µM (inactive). The GI50 (HOP-92) was > 100 µM (inactive), the GI50 (SK-MEL-5) was > 100 µM (inactive) and the GI50 (A498) was > 100 µM (inactive). The GI50 (SNB-78) was > 100 µM (inactive), the GI50 (SK-MEL-28) was > 100 µM (inactive) and the GI50 (XF498) was > 100 µM (inactive). The GI50 (Malme-3M) was > 100 µM (inactive), the GI50 (UACC-257) was > 100 µM (inactive) and the GI50 (DMS-114) was > 100 µM (inactive). For the same molecule, the GI50 (M14) was > 100 µM (inactive), the GI50 (IGROV-1) was > 100 µM (inactive) and the GI50 (OVCAR-8) was > 100 µM (inactive). The GI50 (DMS-273) was > 100 µM (inactive), the GI50 (A549) was > 100 µM (inactive) and the GI50 (SK-OV-3) was > 100 µM (inactive). The GI50 (NCI-H226) was > 100 µM (inactive), the GI50 (OVCAR-4) was > 100 µM (inactive) and the GI50 (SN12C) was > 100 µM (inactive). For the same molecule, the GI50 (EKVX) was > 100 µM (inactive), the GI50 (HCC 2998) was > 100 µM (inactive) and the GI50 (SK-MEL-2) was > 100 µM (inactive). The GI50 (KM-20L2) was > 100 µM (inactive), the GI50 (COLO 205) was > 100 µM (inactive) and the GI50 (MOLT-4) was > 100 µM (inactive). The GI50 (UACC-62) was > 100 µM (inactive), the GI50 (HCT-116) was > 100 µM (inactive) and the GI50 (UO-31) was 44.4 µM (inactive). The GI50 (SF-295) was > 100 µM (inactive), the GI50 (LXFL 529) was > 100 µM (inactive) and the GI50 (RPMI-8226) was > 100 µM (inactive). The GI50 (NCI-H460) was > 100 µM (inactive), the GI50 (CAKI-1) was > 100 µM (inactive) and the GI50 (SF-268) was > 100 µM (inactive). For the same molecule, the GI50 (NCI-H522) was > 100 µM (inactive), the GI50 (SNB-19) was > 100 µM (inactive) and the GI50 (HT-29) was > 100 µM (inactive). The GI50 (LOX IMVI) was > 100 µM (inactive), the GI50 (HCT-15) was > 100 µM and the GI50 (SF-539) was > 100 µM (inactive). For the same molecule, the GI50 (HOP-62) was > 100 µM (inactive), the GI50 (DLD-1) was > 100 µM (inactive) and the GI50 (K562) was > 100 µM (inactive). The GI50 (OVCAR-3) was > 100 µM (inactive), the GI50 (SNB-75) was 43.6 µM (inactive) and the GI50 (786-0) was > 100 µM (inactive). For the same molecule, the GI50 (TK-10) was > 100 µM (inactive).
In the case of CC(C)(C)N/N=C(\Cc1occc(=O)c1O)C(=O)Nc1ccc([N+](=O)[O-])cc1[N+](=O)[O-], the GI50 (HL-60) is reported as > 100 µM (inactive), the GI50 (CCRF-CEM) is reported as > 100 µM (inactive) and the GI50 (OVCAR-5) is reported as > 100 µM (inactive). For the same molecule, the GI50 (ACHN) was > 100 µM (inactive), the GI50 (RXF 393) was > 100 µM (inactive) and the GI50 (RXF 631) was > 100 µM (inactive). The GI50 (NCI-H23) was > 100 µM (inactive), the GI50 (M19-MEL) was > 100 µM (inactive) and the GI50 (SW-620) was > 100 µM (inactive). For the same molecule, the GI50 (HOP-92) was > 100 µM (inactive), the GI50 (SK-MEL-5) was > 100 µM (inactive) and the GI50 (A498) was > 100 µM (inactive). For the same molecule, the GI50 (SNB-78) was > 100 µM (inactive), the GI50 (KM12) was > 100 µM (inactive) and the GI50 (SR) was > 100 µM (inactive). The GI50 (SK-MEL-28) was > 100 µM (inactive), the GI50 (U-251) was > 100 µM (inactive) and the GI50 (XF498) was > 100 µM (inactive). The GI50 (Malme-3M) was > 100 µM (inactive), the GI50 (UACC-257) was > 100 µM (inactive) and the GI50 (DMS-114) was > 100 µM (inactive). For the same molecule, the GI50 (M14) was > 100 µM (inactive), the GI50 (IGROV-1) was > 100 µM (inactive) and the GI50 (OVCAR-8) was > 100 µM (inactive). For the same molecule, the GI50 (DMS-273) was > 100 µM (inactive), the GI50 (A549) was > 100 µM (inactive) and the GI50 (SK-OV-3) was > 100 µM (inactive). For the same molecule, the GI50 (NCI-H226) was > 100 µM (inactive), the GI50 (OVCAR-4) was > 100 µM (inactive) and the GI50 (SN12C) was > 100 µM (inactive). For the same molecule, the GI50 (EKVX) was 66.5 µM (inactive), the GI50 (SK-MEL-2) was > 100 µM (inactive) and the GI50 (KM-20L2) was > 100 µM (inactive). The GI50 (COLO 205) was > 100 µM (inactive), the GI50 (MOLT-4) was > 100 µM (inactive) and the GI50 (UACC-62) was > 100 µM (inactive). For the same molecule, the GI50 (HCT-116) was > 100 µM (inactive), the GI50 (UO-31) was > 100 µM (inactive) and the GI50 (SF-295) was > 100 µM (inactive). The GI50 (HOP-18) was > 100 µM (inactive), the GI50 (LXFL 529) was > 100 µM (inactive) and the GI50 (RPMI-8226) was > 100 µM (inactive). The GI50 (NCI-H460) was > 100 µM (inactive), the GI50 (CAKI-1) was > 100 µM (inactive) and the GI50 (SF-268) was > 100 µM (inactive). The GI50 (NCI-H522) was > 100 µM (inactive), the GI50 (SNB-19) was > 100 µM (inactive) and the GI50 (HT-29) was > 100 µM (inactive). For the same molecule, the GI50 (LOX IMVI) was > 100 µM (inactive), the GI50 (HCT-15) was > 100 µM and the GI50 (SF-539) was > 100 µM (inactive). For the same molecule, the GI50 (HOP-62) was > 100 µM (inactive), the GI50 (K562) was > 100 µM (inactive) and the GI50 (SNB-75) was > 100 µM (inactive). For the same molecule, the GI50 (786-0) was > 100 µM (inactive) and the GI50 (TK-10) was > 100 µM (inactive).
